According to patent publication US12686692B2, “KRas G12D inhibitors” (Mirati Therapeutics, Inc., priority 2020, dated 2026):

Tests used:
[1] = tested on: KRas G12D-mediated Phosphorylation of ERK; assay: Inhibition of KRas G12D-mediated Phosphorylation of ERK in AGS cells; format: cell-based; details: Homo sapiens; AGS cells expressing G12D, 3 hours, phospho-ERK normalized to GAPDH
Method: AGS cells (ATCC CRL-1739) expressing G12D were grown in DMEM medium supplemented with 10% fetal bovine serum, 10 mM HEPES, and Penicillin/Streptomycin. Cells were plated in tissue culture treated 96 well plates at a density of 40,000 cells/well and allowed to attach for 12-14 hours. Diluted compounds were then added in a final concentration of 0.5% DMSO. After 3 hours, the medium was removed, 150 μl of 4.0% formaldehyde was added and the plates incubated at room temperature for 20 minutes. The plates were washed with PBS, and permeabilized with 150 μL of ice cold 100% methanol for 10 minutes. Non-specific antibody binding to the plates was blocked using 100 μL Licor blocking buffer (Li-Cor Biotechnology, Lincoln NE) for 1 hour at room temperature.
The amount of phospho-ERK was determined using an antibody specific for the phosphorylated form of ERK and compared to the amount of GAPDH. Primary antibodies used for the detection were added as follows: Phospho-ERK(Cell Signaling cs-9101) diluted 1:500 and GAPDH(Millipore MAB374) diluted 1:5000 in Licor block+0.05% Tween 20. The plates were incubated for 2 hours at room temperature. The plates were washed with PBS+0.05% Tween 20.
Secondary antibodies used to visualize primary antibodies were added as follows: Anti-rabbit-680 diluted 1:1000 and Anti-mouse-800 diluted 1:1000 both in Licor block+0.05% Tween20, and were incubated for 1 hour at room temperature. The plates were washed with PBS+0.05% Tween 20. A 100 μl aliquot of PBS was added to each well and the plates were read on a Li-Cor Odyssey CLX plate reader.
The phospho-ERK(Thr202/Tyr204 signal was normalized to the GAPDH signal for each well and percent of DMSO control values were calculated. IC50 values were generated using a 4-parameter fit of the dose response curve.

KRas G12D = KRas G12D (Homo sapiens, UniProt P01116, G12D); assay: KRas G12D Binding Assay (TR-FRET displacement of labeled tracer); set-up: corresponding to amino acids 1:169, produced at Array BioPharma; biotin (protein is biotinylated); details: TR-FRET displacement of Cy5 labelled tracer, biotinylated GDP-loaded KRAS G12D (aa 1:169), 60 minute incubation at 22° C.
Method: This Example illustrates that exemplary compounds of the present invention bind to KRas G12D and are capable of displacing a labeled tracer ligand occupying the KRas G12D binding site.
The ability of a compound to bind to KRAS G12D was measured using a TR-FRET displacement assay. Biotinylated GDP-loaded recombinant human KRAS G12D (corresponding to amino acids 1:169, produced at Array BioPharma) was incubated with a custom-made Cy5 labelled tracer, europium labelled streptavidin and compound (2% DMSO final) in buffer (50 mM HEPES [pH 7.5], 5 mM MgCl2, 0.005% Tween-20 & 1 mM DTT). After a 60 minute incubation at 22° C., the reaction was measured using a PerkinElmer EnVision multimode plate reader via TR-FRET dual wavelength detection, and the percent of control (POC) calculated using a ratiometric emission factor. […] The POC values were fit to a 4-parameter logistic curve and the IC50 value was determined as the concentration where the curve crosses 50 POC.

KRas G12D, sequence (P01116 1-169 isoform P01116-2 G12D): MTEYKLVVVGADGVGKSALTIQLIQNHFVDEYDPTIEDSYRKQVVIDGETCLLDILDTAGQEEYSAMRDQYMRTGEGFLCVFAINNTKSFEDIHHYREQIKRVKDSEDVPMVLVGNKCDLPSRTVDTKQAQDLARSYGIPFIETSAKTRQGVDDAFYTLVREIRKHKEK

| SMILES | IC50 [1] [nM] | IC50 (KRas G12D) [nM] |
| --- | --- | --- |
| Oc1cc(N2CCc3c(nc(OCC45CCCN4C[C@H](F)C5)nc3N3CC4CCC(C3)N4)C2)c2c(Cl)cccc2c1 (mixture of isomers) [Example 49, 4-(4-((1R,5S)-3,8-diazabicyclo[3.2.1]octan-3-yl)-2-((2-fluorotetrahydro-1H-pyrrolizin-7a(5H)-yl)methoxy)-5,8-dihydropyrido[3,4-d]pyrimidin-7(6H)-yl)-5-chloronaphthalen-2-ol] | 77 | 0.5 |
| CCc1cccc2cc(O)cc(N3CCc4c(nc(OCC56CCCN5C(CF)CC6)nc4N4CC5CCC(C4)N5)C3)c12 (mixture of isomers) [Example 23, 4-(4-((1R,5S)-3,8-diazabicyclo[3.2.1]octan-3-yl)-2-((3-(fluoromethyl)tetrahydro-1H-pyrrolizin-7a(5H)-yl)methoxy)-5,8-dihydropyrido[3,4-d]pyrimidin-7(6H)-yl)-5-ethylnaphthalen-2-ol (mixture or isomers)] | 119 | 1.1 |
| CCc1cccc2cccc(N3CCc4c(nc(OC[C@]56CCCN5[C@@H](COC(=O)NCCOC)CC6)nc4N4C[C@H]5CC[C@@H](C4)N5)C3)c12 [Example 108, ((3R,7aR)-7a-(((4-((1R,5S)-3,8-diazabicyclo[3.2.1]octan-3-yl)-7-(8-ethylnaphthalen-1-yl)-5,6,7,8-tetrahydropyrido[3,4-d]pyrimidin-2-yl)oxy)methyl)hexahydro-1H-pyrrolizin-3-yl)methyl (2-methoxyethyl)carbamate] | 585 | 2 |
| CCc1cccc2cccc(N3CCc4c(nc(OCC56CCCN5[C@@H](COC(=O)NC)CC6)nc4N4CC5CCC(C4)N5)C3)c12 (stereo partly drawn) [Example 5, (7a-(((4-((1R,5S)-3,8-diazabicyclo[3.2.1]octan-3-yl)-7-(8-ethylnaphthalen-1-yl)-5,6,7,8-tetrahydropyrido[3,4-d]pyrimidin-2-yl)oxy)methyl)hexahydro-1H-pyrrolizin-3-yl)methyl methylcarbamate (trans enantiomers)] | 142 | 1.6 |
| CCc1cccc2cccc(N3CCc4c(nc(OC[C@]56CCCN5[C@@H](COC(=O)N5CCCC5)CC6)nc4N4C[C@H]5CC[C@@H](C4)N5)C3)c12 [Example 99, ((3R,7aR)-7a-(((4-((1R,5S)-3,8-diazabicyclo[3.2.1]octan-3-yl)-7-(8-ethylnaphthalen-1-yl)-5,6,7,8-tetrahydropyrido[3,4-d]pyrimidin-2-yl)oxy)methyl)hexahydro-1H-pyrrolizin-3-yl)methyl pyrrolidine-1-carboxylate] | 559 | 2.7 |
| F[C@H]1CN2CCCC2(COc2nc3c(c(N4CC5CCC(C4)N5)n2)CCN(c2cccc4cccc(C(F)(F)F)c24)C3)C1 (mixture of isomers) [Example 51, 4-((1R,5S)-3,8-diazabicyclo[3.2.1]octan-3-yl)-2-((2-fluorotetrahydro-1H-pyrrolizin-7a(5H)-yl)methoxy)-7-(8-(trifluoromethyl)naphthalen-1-yl)-5,6,7,8-tetrahydropyrido[3,4-d]pyrimidine] | > 16700 | 16.9 |
| CN(C)C(=O)OC[C@H]1CCC2(COc3nc4c(c(N5CC6CCC(C5)N6)n3)CCN(c3cccc(Cl)c3C3CC3)C4)CCCN12 (stereo partly drawn) [Example 33, (7a-(((4-((1R,5S)-3,8-diazabicyclo[3.2.1]octan-3-yl)-7-(3-chloro-2-cyclopropylphenyl)-5,6,7,8-tetrahydropyrido[3,4-d]pyrimidin-2-yl)oxy)methyl)hexahydro-1H-pyrrolizin-3-yl)methyl dimethylcarbamate (trans enantiomers)] | 5560 | 50.2 |
| F[C@H]1CN2CCCC2(COc2nc3c(c(N4CC5CCC(C4)N5)n2)CCN(c2cccc4cccc(Cl)c24)C3)C1 (mixture of isomers) [Example 46, 4-((1R,5S)-3,8-diazabicyclo[3.2.1]octan-3-yl)-7-(8-chloronaphthalen-1-yl)-2-((2-fluorotetrahydro-1H-pyrrolizin-7a(5H)-yl)methoxy)-5,6,7,8-tetrahydropyrido[3,4-d]pyrimidine] | 4570 | 4.4 |
| CCc1cccc2cc(O)cc(N3CCc4c(nc(OCC56CCCN5C[C@H](F)C6)nc4N4CC5CCC(C4)N5)C3)c12 (mixture of isomers) [Example 6, 4-(4-((1R,5S)-3,8-diazabicyclo[3.2.1]octan-3-yl)-2-((2-fluorotetrahydro-1H-pyrrolizin-7a(5H)-yl)methoxy)-5,8-dihydropyrido[3,4-d]pyrimidin-7(6H)-yl)-5-ethylnaphthalen-2-ol (racemic, trans)] | 12 | 0.8 |
| CCc1c(F)ccc2cccc(N3CCc4c(nc(OC[C@]56CCCN5[C@@H](COC(=O)N5CCOCC5)CC6)nc4N4C[C@H]5CC[C@@H](C4)N5)C3)c12 [Example 98, ((3R,7aR)-7a-(((4-((1R,5S)-3,8-diazabicyclo[3.2.1]octan-3-yl)-7-(8-ethyl-7-fluoronaphthalen-1-yl)-5,6,7,8-tetrahydropyrido[3,4-d]pyrimidin-2-yl)oxy)methyl)hexahydro-1H-pyrrolizin-3-yl)methyl morpholine-4-carboxylate] | 50 | 0.7 |
| Oc1cc(N2CCc3c(nc(OCC45CCCN4CCC5)nc3N3C[C@H]4CC[C@@H](C3)N4)C2)c2c(Cl)cccc2c1 [Example 115, 4-(4-((1R,5S)-3,8-diazabicyclo[3.2.1]octan-3-yl)-2-((hexahydro-1H-pyrrolizin-7a-yl)methoxy)-5,6-dihydropyrido[3,4-d]pyrimidin-7(8H)-yl)-5-chloronaphthalen-2-ol] | 118 | 0.6 |
| CN1CCC[C@H]1COc1nc2c(c(N3C[C@H]4C[C@H](O)[C@@H](C3)N4)n1)CCN(c1cccc3cccc(Cl)c13)C2 [Example 96, (1R,5R,6S)-3-(7-(8-chloronaphthalen-1-yl)-2-(((S)-1-methylpyrrolidin-2-yl)methoxy)-5,6,7,8-tetrahydropyrido[3,4-d]pyrimidin-4-yl)-3,8-diazabicyclo[3.2.1]octan-6-ol] | > 16700 | 331 |
| CCc1c(F)ccc2cccc(N3CCc4c(nc(OCC56CCCN5CCC6)nc4N4C[C@H]5CC[C@@H](C4)N5)C3)c12 [Example 19, 4-((1R,5S)-3,8-diazabicyclo[3.2.1]octan-3-yl)-7-(8-ethyl-7-fluoronaphthalen-1-yl)-2-((tetrahydro-1H-pyrrolizin-7a(5H)-yl)methoxy)-5,6,7,8-tetrahydropyrido[3,4-d]pyrimidine] | 324 | 1.8 |
| CCc1cccc2cccc(N3CCc4c(nc(OC[C@@]56CCCN5C[C@H](F)C6)nc4[C@H]4C[C@H]5CC[C@@H](C4)N5)C3)c12 [Example 121, 4-((1R,3r,5S)-8-azabicyclo[3.2.1]octan-3-yl)-7-(8-ethylnaphthalen-1-yl)-2-(((2R,7aS)-2-fluorotetrahydro-1H-pyrrolizin-7a(5H)-yl)methoxy)-5,6,7,8-tetrahydropyrido[3,4-d]pyrimidine] | 2360 | 8.7 |
| Oc1cc(N2CCc3c(nc(OCC45CCCN4C[C@H](F)C5)nc3N3CC4CCC(C3)N4)C2)c2ccccc2c1 (mixture of isomers) [Example 47, 4-(4-((1R,5S)-3,8-diazabicyclo[3.2.1]octan-3-yl)-2-((2-fluorotetrahydro-1H-pyrrolizin-7a(5H)-yl)methoxy)-5,8-dihydropyrido[3,4-d]pyrimidin-7(6H)-yl)naphthalen-2-ol] | 537 | 1 |
| F[C@H]1CN2CCCC2(COc2nc3c(c(N4CC5CCC(C4)N5)n2)CCN(c2cccc4cccc(C5CC5)c24)C3)C1 (mixture of isomers) [Example 11] | > 16700 | 19.8 |
| CCc1cccc2cccc(N3CCc4c(nc(OCC56CCCN5C(COC(=O)N5CC[C@@H](OC)C5)CC6)nc4N4C[C@H]5CC[C@@H](C4)N5)C3)c12 (stereo partly drawn) [Example 106, (7a-(((4-((1R,5S)-3,8-diazabicyclo[3.2.1]octan-3-yl)-7-(8-ethylnaphthalen-1-yl)-5,6,7,8-tetrahydropyrido[3,4-d]pyrimidin-2-yl)oxy)methyl)hexahydro-1H-pyrrolizin-3-yl)methyl (3R)-3-methoxypyrrolidine-1-carboxylate] | 5110 | 7.2 |
